The nature of the series: Canine imaging and biodistribution model. As to conditions: for route of excretion: i.v. infusion, gamma camera images and biodistribution. As for the experimental part:
A canine imaging and biodistribution model was used to evaluate the radiopharmaceuticals of Examples 5 and 7.
Adult beagle dogs of either sex (9-13 kg) were anesthetized with pentobarbital sodium (35 mg/kg,i.v.) and ventilated with room air via an endotracheal tube (12 strokes/min, 25 ml/kg). For arterial pressure determination, the right femoral artery was cannulated with a saline-filled polyethylene catheter (PE-240) and connected to a Statham pressure transducer (P23ID; Oxnard, Calif.). Mean arterial blood pressure was determined via damping the pulsatile pressure signal. Heart rate was monitored using a cardiotachometer (Biotach, Grass Quincy, Mass.) triggered from a lead II electrocardiogram generated by limb leads. All parameters were monitored continuously on a polygraph recorder (model 7D Grass) at a paper speed of 10 mm/min or 25 mm/sec. The right femoral vein was cannulated (PE-240) for drug administration. A control blood sample was collected for hematology analysis on an MCA210 (APTT, PT), K1000 (cell number), and Chrono Log Aggregometer (collagen induced platelet aggregation). Blood samples were also collected immediately after infusion, 30, 60, and 120 minutes post infusion. Samples of blood were retained for blood clearance determination at control, immediately following infusion, 15, 30, 60, 90, and 120 minutes post infusion. Administration of test article was given no earlier than 20 minutes post surgery. The test article was administered as a 10 cc slow infusion over 5 minutes. Images were acquired by a gamma camera over 5 minutes and taken during infusion, 5, 15, 30, 60, 90, 120 minutes post infusion (Digital Dyna Camera, Picker International, Cleveland, Ohio). At the end of the protocol the animal was euthanized with an overdose of pentobarbital and a biodistribution performed. The samples collected for biodistribution (muscle, liver, kidney, bile, spleen, heart, lung thyroid, and urine) and the blood clearance samples were weighed and the amount of activity determined via a gamma well counter (LKB 1282, Wallac Inc).

Where [1] appears, read: at 120 min post-injection, beagle dogs.

Consider “[^99mTc (HYPY) (tricine) (TFP)] [Example 5]”, for which the route of excretion entry (anesthetized adult beagle dogs) is recorded as “predominantly hepatobiliary”. Besides, the “clearance from the blood” value (dog, in vivo, iv) is listed as “Rapid blood clearance”.
As for “[^99mTc (HYNICamide) (tricine) (TPPTS)] [Example 7]”, the route of excretion entry (anesthetized adult beagle dogs) is “predominantly renal”. Besides, the “clearance from the blood” value (anesthetized adult beagle dogs, slow i.v. infusion over 5 minutes, blood samples up to 120 minutes post infusion) is on record as “rapid clearance”. Further, under setting [1], the “portion of the radiopharmaceutical located in the bladder” value is “vast majority” and the “radiopharmaceutical remaining in the blood, the muscle or other organs” value is “very little remaining”.

Values taken from patent US6403054B1, “Ternary ligand complexes useful as radiopharmaceuticals” (Bristol-Myers Squibb Pharma Company, priority 1997, dated 2002).
